Measured values published in the supplement of paper PMC11451515.

System: SEM cells
Assay: cell viability relative to DMSO control; higher = less cytotoxic
Details: 48 h
How it was run: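 NOMO1 or SEM (500 cells/well) or P12-Ichikawa (1000 cells/well) leukemia cells were adapted for at least four passages in each medium. They were seeded in 1536-well plates (5 μl) and pin-dosed with library compounds in DMSO over an 11-point threefold series, 47 μM to 0.79 nM. CellTiter-Glo One luminescence was read after 48 h at 37°C. Viability is the per-plate percentage relative to DMSO wells, with cell-free wells as background.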

[1] = HPLM + 10% dialyzed FBS, 0.000781 µM
[2] = HPLM + 10% dialyzed FBS, 0.00234 µM
[3] = HPLM + 10% dialyzed FBS, 0.00702 µM
[4] = HPLM + 10% dialyzed FBS, 0.0211 µM
[5] = HPLM + 10% dialyzed FBS, 0.0632 µM
[6] = HPLM + 10% dialyzed FBS, 0.19 µM
[7] = HPLM + 10% dialyzed FBS, 0.569 µM
[8] = HPLM + 10% dialyzed FBS, 1.71 µM
[9] = HPLM + 10% dialyzed FBS, 5.12 µM
[10] = HPLM + 10% dialyzed FBS, 15.4 µM
[11] = HPLM + 10% dialyzed FBS, 46.1 µM
[12] = RPMI 5 mM glucose + 10% FBS, 0.000781 µM
[13] = RPMI 5 mM glucose + 10% FBS, 0.00234 µM
[14] = RPMI 5 mM glucose + 10% FBS, 0.00702 µM
[15] = RPMI 5 mM glucose + 10% FBS, 0.0211 µM
[16] = RPMI 5 mM glucose + 10% FBS, 0.0632 µM
[17] = RPMI 5 mM glucose + 10% FBS, 0.19 µM
[18] = RPMI 5 mM glucose + 10% FBS, 0.569 µM
[19] = RPMI 5 mM glucose + 10% FBS, 1.71 µM
[20] = RPMI 5 mM glucose + 10% FBS, 5.12 µM
[21] = RPMI 5 mM glucose + 10% FBS, 15.4 µM
[22] = RPMI 5 mM glucose + 10% FBS, 46.1 µM
[23] = RPMI 5 mM glucose + 10% dialyzed FBS, 0.000781 µM
[24] = RPMI 5 mM glucose + 10% dialyzed FBS, 0.00234 µM
[25] = RPMI 5 mM glucose + 10% dialyzed FBS, 0.00702 µM
[26] = RPMI 5 mM glucose + 10% dialyzed FBS, 0.0211 µM
[27] = RPMI 5 mM glucose + 10% dialyzed FBS, 0.0632 µM
[28] = RPMI 5 mM glucose + 10% dialyzed FBS, 0.19 µM
[29] = RPMI 5 mM glucose + 10% dialyzed FBS, 0.569 µM
[30] = RPMI 5 mM glucose + 10% dialyzed FBS, 1.71 µM
[31] = RPMI 5 mM glucose + 10% dialyzed FBS, 5.12 µM
[32] = RPMI 5 mM glucose + 10% dialyzed FBS, 15.4 µM
[33] = RPMI 5 mM glucose + 10% dialyzed FBS, 46.1 µM

Row | Structure (SMILES) | cell viability [1] [%] | cell viability [2] [%] | cell viability [3] [%] | cell viability [4] [%] | cell viability [5] [%] | cell viability [6] [%] | cell viability [7] [%] | cell viability [8] [%] | cell viability [9] [%] | cell viability [10] [%] | cell viability [11] [%] | cell viability [12] [%] | cell viability [13] [%] | cell viability [14] [%] | cell viability [15] [%] | cell viability [16] [%] | cell viability [17] [%] | cell viability [18] [%] | cell viability [19] [%] | cell viability [20] [%] | cell viability [21] [%] | cell viability [22] [%] | cell viability [23] [%] | cell viability [24] [%] | cell viability [25] [%] | cell viability [26] [%] | cell viability [27] [%] | cell viability [28] [%] | cell viability [29] [%] | cell viability [30] [%] | cell viability [31] [%] | cell viability [32] [%] | cell viability [33] [%]
1 | COCC1(CO)C(=O)C2CCN1CC2 (stereo not given) | 76.2 | 81.7 | 112 | 93.8 | 96.3 | 104 | 4.05 | 73.6 | 87.1 | 71 | 10.3 | 102 | 105 | 137 | 134 | 137 | 144 | 3.64 | 111 | 99.3 | 77.2 | 5.79 | 70.2 | 85.2 | 118 | 105 | 124 | 116 | 3.95 | 90.6 | 103 | 61.8 | 16.9
2 | c1ccc2[nH]c(-c3cscn3)nc2c1 | 93.6 | 120 | 111 | 107 | 115 | 105 | 109 | 69 | 111 | 42.7 | 116 | 98.5 | 132 | 121 | 85.9 | 112 | 108 | 126 | 71.3 | 103 | 23.7 | 71.7 | 112 | 127 | 121 | 94.4 | 129 | 132 | 139 | 80.6 | 124 | 33.7 | 97.3
3 | N#CCNC(=O)c1ccc(-c2ccnc(Nc3ccc(N4CCOCC4)cc3)n2)cc1 |  |  |  |  |  |  |  |  |  |  |  | 98.5 | 107 | 122 | 108 | 126 | 116 | 103 | 107 | 87 | 37.9 | 13.1 | 91.3 | 107 | 105 | 115 | 120 | 101 | 91.5 | 88.5 | 65.1 | 37.2 | 21.6
4 | CC(C)OC(=O)C(C(=O)OC(C)C)=C1S\C=C/S1 | 112 | 119 | 128 | 125 | 120 | 123 | 117 | 123 | 118 | 70.1 | 113 | 114 | 135 | 122 | 125 | 122 | 133 | 141 | 131 | 116 | 50.9 | 109 |  |  |  |  |  |  |  |  |  |  | 
